Laboratory results published in patent US11339130B1 (Blade Therapeutics, Inc., priority 2016, dated 2022).

Molecular target: T1, rat calpain 1 (Rattus norvegicus, UniProt P97571)
T1 construct: made in house
Test: Calpain binding: crystal structure interaction distances, rat calpain 1
Details: for Interaction Distances P1-Gly113 / Interaction Distances P1-Gly207 / Interaction Distances P1-Met260 / Interaction Distances P1-Ser206 / Interaction Distances P2-Ala273 / Interaction Distances P2-Gly208 / Interaction Distances P2-Gly271 / Interaction Distances P2-His272 / Interaction Distances P2-Ser251 / Interaction Distances P3-Gly207 / Interaction Distances P3-Gly208 / Interaction Distances P3-Ser209: non-polar interactions with rat calpain 1; for Interaction Distances R^10-Gly271 / Interaction Distances R^11-Gly208 / Interaction Distances R^12-His272 / Interaction Distances R^13-Cys115 / Interaction Distances R^13-Gln109: polar interactions with rat calpain 1
Experimental: Calpain 9 Crystallization: A 10 mg/ml solution of rat calpain 1 or human calpain 9 (obtained as described above) was prepared in 50 mM tris (pH 8), 0.5 M NaCl, 1 mM EDTA, 1 mM CaCl2), and 1 mM beta-mercaptoethanol against MCSG1 screen condition C2 (Anatrace, Maumee, Ohio) containing 0.2 M LiSO4, 0.1 M bis-tris (pH 5.5), and 25% PEG 3350. The solution contained 2.5 mM of test compound supplemented with 20% ethylene glycol as a cryo-protectant. The bound protein was crystallized using vapor diffusion, sitting drop, at […]. The space group was P 41 21 2, with unit cell dimensions of 97.2 Å, 97.2 Å, 173.4 Å.
Calpain 1 preparation, crystallization, and data collection: Suitable constructs for expression of rat calpain 1 had been previously established. Expression was performed according to previously established protocols. A purification protocol was established and homogeneous protein was produced in preparative amounts. The calpain 1 protein was purified comprising affinity and gel filtration chromatography steps. This procedure yielded homogenous protein with a purity greater 95% as judged from Coomassie stained SDS-PAGE. The purified protein was used in crystallization trials with test compounds employing both, a standard screen with approximately 1200 different conditions, as well as crystallization conditions identified using literature data. Conditions initially obtained were optimised using standard strategies, systematically varying parameters critically influencing crystallization, such as temperature, protein concentration, drop ratio, and others. These conditions were also refined by systematically varying pH or precipitant concentrations. Crystals were flashfrozen and measured at a temperature of 100 K. The X-ray diffraction data were collected from complex crystals ligands at a synchrotron source using cryogenic conditions. Data were processed using software programs XDS and XSCALE
Key interactions between test compound moieties (with reference to the variables of Formula II) and calpain 1 or calpain 9 residues were determined as set forth in Tables 4-7 below.

T1 sequence (P97571 29-356 limits assumed): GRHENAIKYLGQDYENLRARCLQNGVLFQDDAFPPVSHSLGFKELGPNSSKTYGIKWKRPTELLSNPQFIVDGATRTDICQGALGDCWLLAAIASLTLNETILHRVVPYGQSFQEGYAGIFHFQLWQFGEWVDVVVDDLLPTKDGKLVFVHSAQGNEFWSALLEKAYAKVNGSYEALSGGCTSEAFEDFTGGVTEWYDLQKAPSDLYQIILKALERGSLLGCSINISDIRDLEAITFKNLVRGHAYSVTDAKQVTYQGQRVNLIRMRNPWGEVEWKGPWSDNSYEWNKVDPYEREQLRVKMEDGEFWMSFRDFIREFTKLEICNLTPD

Row | Interaction Distances P1-Gly113 [Å] | Interaction Distances P1-Gly207 [Å] | Interaction Distances P1-Met260 [Å] | Interaction Distances P1-Ser206 [Å] | Interaction Distances P2-Ala273 [Å] | Interaction Distances P2-Gly208 [Å] | Interaction Distances P2-Gly271 [Å] | Interaction Distances P2-His272 [Å] | Interaction Distances P2-Ser251 [Å] | Interaction Distances P3-Gly207 [Å] | Interaction Distances P3-Gly208 [Å] | Interaction Distances P3-Ser209 [Å] | Interaction Distances R^10-Gly271 [Å] | Interaction Distances R^11-Gly208 [Å] | Interaction Distances R^12-His272 [Å] | Interaction Distances R^13-Cys115 [Å] | Interaction Distances R^13-Gln109 [Å] | SMILES
1 | 4.0 | 3.7 | 3.3 | 4.4 | 4.1 | 3.2 | 3.2 | 4.2 | 4.4 | 3.7 | 3.3 | 4.4 | 3.21 | 2.9 | 2.9 | 2.91 | 2.91 | NC(=O)C(=O)[C@H](Cc1ccccc1)NC(=O)c1cnoc1-c1ccccc1 [Compound 60, (S)—N-(4-amino-3,4-dioxo-1-phenylbutan-2-yl)-5-phenylisoxazole-4-carboxamide]
2 | 3.8 | 3.5 | 3.5 | 4.1 | 4.4 | 3.3 | 3.4 | 4.6 | 3.7 | 3.6 | 3.5 | 3.8 | 3.28 | 2.98 | 2.81 | 2.96 | 3 | NC(=O)C(=O)[C@H](Cc1ccccc1)NC(=O)c1cn(C2CC2)nc1-c1ccccc1 [Compound 250, (S)—N-(4-amino-3,4-dioxo-1-phenylbutan-2-yl)-1-cyclopropyl-3-phenyl-1H-pyrazole-4-carboxamide]
